The record followed here is ChEMBL document CHEMBL5321194 (J Med Chem, 2023).

SMILES strings stand for the structures. Values after ≈ are worked out from the molar mass of the structure shown.

For series [1], the target named is Dual specificity protein kinase CLK4 (Homo sapiens, UniProt Q9HAZ1). Kind of series: Inhibition of human CLK4 using myelin basic protein as substrate in presence of [gamma-33p]-ATP by radiometric hotspot kinase.
In series [2] the target is T1, SRSF protein kinase 2 (Homo sapiens, UniProt P78362). To be noted: time 10.0 min.
Target sequence in this assay (P78362 whole entry, looked up): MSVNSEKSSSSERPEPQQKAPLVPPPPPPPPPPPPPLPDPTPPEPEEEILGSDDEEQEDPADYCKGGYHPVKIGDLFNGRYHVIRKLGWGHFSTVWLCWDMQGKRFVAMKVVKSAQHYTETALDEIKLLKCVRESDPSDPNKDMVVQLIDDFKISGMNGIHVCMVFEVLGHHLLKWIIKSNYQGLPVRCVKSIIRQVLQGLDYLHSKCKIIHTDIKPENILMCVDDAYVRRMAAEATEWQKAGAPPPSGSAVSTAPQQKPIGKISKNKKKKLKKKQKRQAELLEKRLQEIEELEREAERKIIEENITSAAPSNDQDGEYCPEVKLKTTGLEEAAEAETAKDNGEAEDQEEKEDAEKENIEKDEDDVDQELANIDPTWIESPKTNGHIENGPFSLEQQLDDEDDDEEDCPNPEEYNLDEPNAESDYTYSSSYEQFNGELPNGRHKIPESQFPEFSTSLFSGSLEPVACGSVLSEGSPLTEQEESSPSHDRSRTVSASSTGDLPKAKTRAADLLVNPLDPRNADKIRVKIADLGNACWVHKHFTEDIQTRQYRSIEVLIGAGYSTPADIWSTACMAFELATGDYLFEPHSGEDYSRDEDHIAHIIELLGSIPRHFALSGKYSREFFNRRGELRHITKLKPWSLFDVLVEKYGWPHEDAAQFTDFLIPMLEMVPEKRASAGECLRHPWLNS
Series [3] has as its target T2, Dual specificity tyrosine-phosphorylation-regulated kinase 2 (Homo sapiens, UniProt Q92630).
T2 sequence (Q92630 whole entry): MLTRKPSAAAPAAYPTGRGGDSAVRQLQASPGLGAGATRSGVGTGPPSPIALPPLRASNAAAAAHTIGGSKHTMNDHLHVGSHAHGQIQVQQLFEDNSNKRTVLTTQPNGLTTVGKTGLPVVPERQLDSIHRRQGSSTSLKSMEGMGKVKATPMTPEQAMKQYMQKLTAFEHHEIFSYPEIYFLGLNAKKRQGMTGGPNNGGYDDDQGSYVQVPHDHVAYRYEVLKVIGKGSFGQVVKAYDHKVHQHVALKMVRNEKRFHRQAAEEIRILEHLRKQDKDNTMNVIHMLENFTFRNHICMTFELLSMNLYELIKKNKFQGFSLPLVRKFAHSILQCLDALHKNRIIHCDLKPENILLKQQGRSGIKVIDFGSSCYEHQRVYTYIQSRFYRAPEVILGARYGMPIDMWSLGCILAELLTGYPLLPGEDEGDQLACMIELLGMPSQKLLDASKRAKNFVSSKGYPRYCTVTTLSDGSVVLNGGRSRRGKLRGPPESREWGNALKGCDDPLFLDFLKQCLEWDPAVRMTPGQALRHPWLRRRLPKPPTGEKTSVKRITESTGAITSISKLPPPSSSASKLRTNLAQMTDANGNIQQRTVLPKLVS

The nature of series [4]: Metabolic stability in mouse liver microsomes assessed as intrinsic clearance.
For series [5], the target named is Dual specificity protein kinase CLK1 (Homo sapiens, UniProt P49759). Kind of series: Inhibition of human CLK1 using myelin basic protein as substrate in presence of [gamma-33p]-ATP by radiometric hotspot kinase.
Sequence of Dual specificity protein kinase CLK1 (P49759 whole entry): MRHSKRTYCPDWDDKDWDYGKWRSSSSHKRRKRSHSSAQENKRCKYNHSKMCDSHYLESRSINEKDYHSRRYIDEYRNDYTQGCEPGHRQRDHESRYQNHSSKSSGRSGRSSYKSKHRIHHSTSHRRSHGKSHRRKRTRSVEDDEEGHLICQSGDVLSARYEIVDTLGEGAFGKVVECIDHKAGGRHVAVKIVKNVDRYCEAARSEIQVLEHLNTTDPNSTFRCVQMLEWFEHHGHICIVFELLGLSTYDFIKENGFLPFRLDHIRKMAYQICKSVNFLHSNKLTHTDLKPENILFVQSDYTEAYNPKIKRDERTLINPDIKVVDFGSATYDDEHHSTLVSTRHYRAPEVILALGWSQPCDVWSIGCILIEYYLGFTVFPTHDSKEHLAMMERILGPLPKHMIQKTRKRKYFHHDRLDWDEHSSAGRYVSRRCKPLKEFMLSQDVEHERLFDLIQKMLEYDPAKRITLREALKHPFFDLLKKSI
Series [6] concerns the target Dual specificity tyrosine-phosphorylation-regulated kinase 1B (Homo sapiens, UniProt Q9Y463).
Series [7] is described as follows: Clearance in human hepatocytes measured per million of cells.
The target of series [8] is T3, SRSF protein kinase 3 (Homo sapiens, UniProt Q9UPE1). As to conditions: time 10.0 min.
T3 sequence (Q9UPE1 whole entry): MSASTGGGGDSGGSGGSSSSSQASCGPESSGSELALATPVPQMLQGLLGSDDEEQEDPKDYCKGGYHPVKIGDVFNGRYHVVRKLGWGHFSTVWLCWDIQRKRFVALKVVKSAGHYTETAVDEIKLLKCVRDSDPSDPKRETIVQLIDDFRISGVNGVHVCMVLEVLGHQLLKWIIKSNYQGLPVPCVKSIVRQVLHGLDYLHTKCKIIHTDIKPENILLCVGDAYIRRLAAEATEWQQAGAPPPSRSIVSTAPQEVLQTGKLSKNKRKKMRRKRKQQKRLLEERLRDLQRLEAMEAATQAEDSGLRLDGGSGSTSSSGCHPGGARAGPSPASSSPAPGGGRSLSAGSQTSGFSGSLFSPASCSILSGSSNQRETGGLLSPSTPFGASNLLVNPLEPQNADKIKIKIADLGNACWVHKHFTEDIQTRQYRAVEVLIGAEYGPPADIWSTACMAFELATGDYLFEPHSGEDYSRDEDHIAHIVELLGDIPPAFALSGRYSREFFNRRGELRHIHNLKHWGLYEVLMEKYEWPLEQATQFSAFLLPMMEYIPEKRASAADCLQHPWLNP
The nature of series [9]: physchem. To be noted: phosphate buffer, pH 7.4.
Series [10] has as its target Dual specificity tyrosine-phosphorylation-regulated kinase 1A (Homo sapiens, UniProt Q13627).
The target in series [11] is Dual specificity protein kinase CLK2 (Homo sapiens, UniProt P49760). Briefly: Inhibition of human CLK2 using myelin basic protein as substrate in presence of [gamma-33p]-ATP by radiometric hotspot kinase.
Sequence of Dual specificity protein kinase CLK2 (P49760 whole entry): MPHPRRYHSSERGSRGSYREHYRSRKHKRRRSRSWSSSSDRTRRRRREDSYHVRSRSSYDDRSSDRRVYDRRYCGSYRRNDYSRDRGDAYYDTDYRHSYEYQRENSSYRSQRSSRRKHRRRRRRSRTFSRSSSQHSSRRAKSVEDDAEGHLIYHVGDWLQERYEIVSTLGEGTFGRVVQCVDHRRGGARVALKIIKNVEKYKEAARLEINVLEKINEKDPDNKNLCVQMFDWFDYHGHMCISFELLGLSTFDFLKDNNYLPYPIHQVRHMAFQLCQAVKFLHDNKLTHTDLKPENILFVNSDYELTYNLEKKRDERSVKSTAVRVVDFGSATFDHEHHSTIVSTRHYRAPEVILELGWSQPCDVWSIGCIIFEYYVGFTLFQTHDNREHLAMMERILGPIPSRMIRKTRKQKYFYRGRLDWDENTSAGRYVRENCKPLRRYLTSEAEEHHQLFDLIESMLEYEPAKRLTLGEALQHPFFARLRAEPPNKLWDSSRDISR
Series [12] concerns the target T4, SRSF protein kinase 1 (Homo sapiens, UniProt Q96SB4). To be noted: time 10.0 min.
For series [13], the target named is T5, Dual specificity tyrosine-phosphorylation-regulated kinase 3 (Homo sapiens, UniProt O43781).
T5 sequence (O43781 whole entry): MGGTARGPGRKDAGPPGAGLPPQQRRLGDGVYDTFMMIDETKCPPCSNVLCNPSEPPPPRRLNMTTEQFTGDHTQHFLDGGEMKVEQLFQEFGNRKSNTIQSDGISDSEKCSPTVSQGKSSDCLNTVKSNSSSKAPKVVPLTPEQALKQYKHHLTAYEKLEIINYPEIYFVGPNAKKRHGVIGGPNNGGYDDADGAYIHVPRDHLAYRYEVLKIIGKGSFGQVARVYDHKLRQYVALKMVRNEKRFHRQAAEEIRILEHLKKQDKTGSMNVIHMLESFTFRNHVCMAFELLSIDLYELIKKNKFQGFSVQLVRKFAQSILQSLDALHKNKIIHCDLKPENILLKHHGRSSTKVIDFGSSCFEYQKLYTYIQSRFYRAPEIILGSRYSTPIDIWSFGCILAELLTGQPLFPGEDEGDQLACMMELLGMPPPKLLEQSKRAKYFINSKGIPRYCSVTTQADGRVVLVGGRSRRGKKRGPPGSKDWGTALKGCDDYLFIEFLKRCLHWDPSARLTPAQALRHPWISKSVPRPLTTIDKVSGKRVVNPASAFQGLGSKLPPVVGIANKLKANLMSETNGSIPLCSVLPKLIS

A short description of series [14]: Metabolic stability in human liver microsomes assessed as intrinsic clearance. (In general: Microsomes from liver hold many membrane-bound enzymes, among them those of drug oxidation.)
Series [15] is described as follows: Clearance in mouse hepatocytes measured per million of cells.
The nature of series [16]: Thermodynamic solubility of the compound in phosphate buffer at pH 7.4.
Series [17] addresses Dual specificity protein kinase CLK3 (Homo sapiens, UniProt P49761). Kind of series: Inhibition of human CLK3 using myelin basic protein as substrate in presence of [gamma-33p]-ATP by radiometric hotspot kinase.
Series [18] is described as follows: Apparent permeability in human Caco-2 cells. For orientation: Caco-2 monolayers are a common model of the intestinal barrier.
For series [19], the target named is Focal adhesion kinase 1 (Homo sapiens, UniProt Q05397).
Description: Inhibition of N-terminal NanoLuc-tagged full length FAK (unknown origin) transfected in HEK293T cells pre-incubated with compound for 2 hrs followed by Nano-Glo substrate addition by NanoBRET analysis
In series [20] the target is T4, SRSF protein kinase 1.
A short description of series [21]: Efflux ratio of apparent permeability in human Caco-2 cells.
Series [22] deals with T1, SRSF protein kinase 2.
Target sequence in this assay (P78362 whole entry): as the sequence (P78362 whole entry, looked up) above
The target in series [23] is T3, SRSF protein kinase 3.
The target of series [24] is T1, SRSF protein kinase 2. The source holds these as a separate data set.
Target sequence in this assay (P78362 whole entry): as the sequence (P78362 whole entry, looked up) above
Description: Inhibition of N-terminal nLuc-fused SRPK2 (unknown origin) transfected in lysed HEK293T cells by NanoBRET assay
Series [25] concerns the target T3, SRSF protein kinase 3. This is another data set of the same source.
Description: Inhibition of N-terminal nLuc-fused SRPK3 (unknown origin) transfected in intact HEK293T cells by NanoBRET assay
Series [26] deals with T4, SRSF protein kinase 1. Briefly: Inhibition of C-terminal nLuc-fused SRPK1 (unknown origin) transfected in intact HEK293T cells by NanoBRET assay.

Sequence of Dual specificity protein kinase CLK4 (Q9HAZ1 whole entry): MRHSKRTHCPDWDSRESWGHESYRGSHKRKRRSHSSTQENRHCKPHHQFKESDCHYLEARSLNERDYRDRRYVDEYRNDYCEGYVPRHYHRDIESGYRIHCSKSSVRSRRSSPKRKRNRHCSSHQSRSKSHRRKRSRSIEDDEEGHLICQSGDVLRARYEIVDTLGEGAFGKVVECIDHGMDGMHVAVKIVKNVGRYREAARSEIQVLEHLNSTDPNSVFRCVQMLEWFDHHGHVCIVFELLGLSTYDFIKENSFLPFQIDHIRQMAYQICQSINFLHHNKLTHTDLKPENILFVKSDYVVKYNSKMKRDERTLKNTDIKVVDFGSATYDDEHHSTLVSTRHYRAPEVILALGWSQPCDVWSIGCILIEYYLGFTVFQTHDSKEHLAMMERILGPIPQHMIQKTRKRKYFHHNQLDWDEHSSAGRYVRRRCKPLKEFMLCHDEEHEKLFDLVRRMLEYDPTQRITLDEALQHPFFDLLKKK
Sequence of Dual specificity tyrosine-phosphorylation-regulated kinase 1B (Q9Y463 whole entry): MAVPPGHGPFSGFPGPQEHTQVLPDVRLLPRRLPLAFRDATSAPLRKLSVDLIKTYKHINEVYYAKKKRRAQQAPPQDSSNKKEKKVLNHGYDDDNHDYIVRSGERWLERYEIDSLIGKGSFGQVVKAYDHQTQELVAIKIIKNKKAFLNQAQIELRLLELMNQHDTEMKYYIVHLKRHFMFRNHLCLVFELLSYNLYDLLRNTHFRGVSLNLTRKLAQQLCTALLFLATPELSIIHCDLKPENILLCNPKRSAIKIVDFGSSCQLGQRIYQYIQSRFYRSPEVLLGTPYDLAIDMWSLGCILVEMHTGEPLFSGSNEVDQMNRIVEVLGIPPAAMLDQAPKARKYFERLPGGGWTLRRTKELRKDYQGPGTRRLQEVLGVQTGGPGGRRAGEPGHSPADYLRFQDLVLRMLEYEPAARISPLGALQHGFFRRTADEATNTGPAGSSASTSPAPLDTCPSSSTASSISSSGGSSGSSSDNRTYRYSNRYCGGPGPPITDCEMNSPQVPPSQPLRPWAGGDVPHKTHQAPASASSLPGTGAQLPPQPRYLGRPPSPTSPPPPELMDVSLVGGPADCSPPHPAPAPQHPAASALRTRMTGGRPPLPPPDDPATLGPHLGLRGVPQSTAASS
T4 sequence (Q96SB4 whole entry): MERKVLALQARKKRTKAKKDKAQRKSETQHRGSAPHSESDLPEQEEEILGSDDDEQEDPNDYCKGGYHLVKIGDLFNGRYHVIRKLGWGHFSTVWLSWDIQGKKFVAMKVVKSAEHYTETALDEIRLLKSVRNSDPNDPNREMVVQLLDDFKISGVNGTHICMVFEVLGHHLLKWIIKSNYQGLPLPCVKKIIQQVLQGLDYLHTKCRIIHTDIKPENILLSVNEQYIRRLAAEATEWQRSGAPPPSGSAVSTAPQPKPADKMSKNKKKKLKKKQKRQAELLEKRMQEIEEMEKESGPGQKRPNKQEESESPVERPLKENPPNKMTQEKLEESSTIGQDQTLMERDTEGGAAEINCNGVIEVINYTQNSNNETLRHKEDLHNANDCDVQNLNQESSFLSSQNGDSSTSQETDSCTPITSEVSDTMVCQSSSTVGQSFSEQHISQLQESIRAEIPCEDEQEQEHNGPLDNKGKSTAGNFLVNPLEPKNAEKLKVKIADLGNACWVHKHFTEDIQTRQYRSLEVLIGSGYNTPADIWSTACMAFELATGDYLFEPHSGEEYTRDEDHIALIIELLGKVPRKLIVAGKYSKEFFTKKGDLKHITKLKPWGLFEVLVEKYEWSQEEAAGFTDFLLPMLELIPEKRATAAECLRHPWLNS
Sequence of Dual specificity protein kinase CLK3 (P49761 whole entry): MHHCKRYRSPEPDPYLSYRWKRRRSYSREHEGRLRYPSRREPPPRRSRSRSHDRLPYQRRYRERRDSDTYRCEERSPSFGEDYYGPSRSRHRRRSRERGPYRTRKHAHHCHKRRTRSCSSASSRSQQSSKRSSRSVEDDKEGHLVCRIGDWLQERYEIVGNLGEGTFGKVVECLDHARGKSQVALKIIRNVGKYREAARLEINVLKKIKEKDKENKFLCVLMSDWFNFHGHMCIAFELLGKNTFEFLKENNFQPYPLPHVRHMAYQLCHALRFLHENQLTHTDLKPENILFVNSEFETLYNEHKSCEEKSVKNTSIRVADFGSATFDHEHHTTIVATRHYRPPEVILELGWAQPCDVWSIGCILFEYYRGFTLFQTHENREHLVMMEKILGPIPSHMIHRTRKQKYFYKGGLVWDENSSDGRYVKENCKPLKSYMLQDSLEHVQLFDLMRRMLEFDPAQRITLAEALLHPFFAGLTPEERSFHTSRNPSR

In general, IC50 refers to the midpoint of a concentration-inhibition curve. Broadly, the ΔTm is the change in melting temperature against a reference sample. By hepatocyte CLint is commonly meant a measure of how fast metabolising enzymes remove a compound, apart from limits set by blood flow. As usually defined, the kinetic solubility is the concentration staying in solution when a stock, usually in DMSO, is diluted into the medium. The thermodynamic solubility is the concentration in solution at equilibrium with solid. What is called Papp is the rate of passage across a membrane or cell layer, normalised by area and donor concentration. With `CN(c1ncccc1CNc1ccnc(-c2nc3c(F)c(Cl)ccc3[nH]2)n1)S(C)(=O)=O`, the IC50 in series [1], in [3], in [5], in series [6], in [10] and in [11] was greater than 10000 nM in each case. Moreover, the IC50 in [13] and in series [17] was greater than 10000 nM throughout. The ΔTm came out at 4 °C in series [2], 9.6 °C in series [8] and 9.1 °C in series [12]. The CLint in series [4] turned out to be 196 µL/min/mg; in series [14], 504 µL/min/mg. Further, the hepatocyte CLint in series [7] came out at 51 µL/min/1e6 cells; in series [15], 354 µL/min/1e6 cells. For the same compound, in [9], the kinetic solubility at 2 h is less than 2 µM. The compound also showed a thermodynamic solubility in series [16] of less than 1 µg/mL. Also, the Papp in series [18] was found to be 7.2 ×10⁻⁶ cm/s.
Broadly, the EC50 is the concentration needed to bring the measured effect to its halfway point. A low value points to an effect from little substance. `c1ccc(-c2nn[nH]n2)nc1`: in series [19], a half-maximal effect (EC50) was put at 253000 nM.
What is called efflux ratio is the permeability from basolateral to apical divided by that in the opposite direction, in the common usage. Regarding `CN(c1ncccc1CNc1ccnc(-c2cc3cc(Cl)ccc3[nH]2)n1)S(C)(=O)=O`, the IC50 in [20] and in [22] was greater than 10000 nM throughout. Besides, the CLint worked out at 784 µL/min/mg in series [4] and 771 µL/min/mg in [14]. In addition, the results for the hepatocyte CLint in series [7] and in series [15] were 156 µL/min/1e6 cells and 1100 µL/min/1e6 cells, respectively. Also, the efflux ratio in series [21] turned out to be 1.6. The same compound came in with a kinetic solubility at 2 h in series [9] of 2.3 µM (≈ 1.02 µg/mL). In [16], this compound showed a thermodynamic solubility of less than 1 µg/mL. For the same compound, the Papp in series [18] turned out to be 2 ×10⁻⁶ cm/s.
In the case of `CCc1cc2c(cc1-c1cccc(S(=O)(=O)F)c1)C(C)(C)c1[nH]c3cc(C#N)ccc3c1C2=O`, the IC50 in [1] came out at 159 nM; in series [3] it was 5720 nM; in [20], 1.68 nM; in series [6], 293 nM; in [10] it was 225 nM; in [11], 920 nM. Also, the IC50 is 2.54 nM in [22], 6780 nM in series [13], greater than 30000 nM in series [17] and 4.81 nM in series [23].
The compound `c1ccc(-c2nc3ccccc3[nH]2)nc1` registered an EC50 in series [19] of 103000 nM.
As for `O=C(Nc1cc(C(F)(F)F)ccc1N1CCN(Cc2ccccn2)CC1)c1ccc(-c2ccncc2)o1`, the IC50 in series [1] was 266 nM; in [3] it was greater than 10000 nM; in [5], 839 nM; in series [6], 1840 nM; in series [10], 1580 nM; in series [11] it was 5700 nM. In addition, the IC50 in [22] is 256 nM; in series [13], greater than 10000 nM; in [17], greater than 10000 nM; in [23], 166 nM. Further, the EC50 in series [24] stood at 648 nM; in series [25], 6150 nM.
As for `O=C(Nc1cc(C(F)(F)F)ccc1N1CCCCC1)c1ccncc1`, the IC50 was greater than 10000 nM in series [1]; greater than 10000 nM in [3]; 83 nM in series [20]; greater than 10000 nM in series [5]; greater than 10000 nM in series [6]; greater than 10000 nM in series [10]. Moreover, the IC50 in series [11] was greater than 10000 nM; in series [22] it was 1510 nM; in series [13], greater than 10000 nM; in series [17], greater than 10000 nM; in series [23], 27 nM. The EC50 worked out at 2560 nM in series [24], 2360 nM in series [26] and 398 nM in series [25].
